Source: patent publication US9579314B2 (priority 2015, dated 2017)

How the values were obtained:
Human β2 adrenoceptor = Human β2 adrenoceptor (Homo sapiens, UniProt P07550); conditions: read-out: B2 binding affinity
Human M3 receptor = Human M3 receptor (Homo sapiens, UniProt P20309); conditions: read-out: M3 binding affinity
Sequence of Human M3 receptor (P20309 whole entry): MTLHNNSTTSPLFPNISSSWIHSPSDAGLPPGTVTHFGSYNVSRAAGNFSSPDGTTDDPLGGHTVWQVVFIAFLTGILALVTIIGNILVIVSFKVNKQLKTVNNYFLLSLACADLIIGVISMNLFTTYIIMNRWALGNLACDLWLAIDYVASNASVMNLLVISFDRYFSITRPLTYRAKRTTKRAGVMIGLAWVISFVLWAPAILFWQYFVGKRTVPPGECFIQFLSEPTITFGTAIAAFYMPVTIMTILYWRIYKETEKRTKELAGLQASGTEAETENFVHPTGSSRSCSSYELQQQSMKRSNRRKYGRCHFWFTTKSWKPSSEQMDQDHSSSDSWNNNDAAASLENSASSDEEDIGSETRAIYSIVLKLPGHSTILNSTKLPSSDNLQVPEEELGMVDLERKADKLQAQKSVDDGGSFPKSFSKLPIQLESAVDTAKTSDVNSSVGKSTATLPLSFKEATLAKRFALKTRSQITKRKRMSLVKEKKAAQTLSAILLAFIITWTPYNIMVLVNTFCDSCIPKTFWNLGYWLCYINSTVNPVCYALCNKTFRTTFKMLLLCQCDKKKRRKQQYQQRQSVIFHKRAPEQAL

Sequence of Human β2 adrenoceptor (P07550 whole entry): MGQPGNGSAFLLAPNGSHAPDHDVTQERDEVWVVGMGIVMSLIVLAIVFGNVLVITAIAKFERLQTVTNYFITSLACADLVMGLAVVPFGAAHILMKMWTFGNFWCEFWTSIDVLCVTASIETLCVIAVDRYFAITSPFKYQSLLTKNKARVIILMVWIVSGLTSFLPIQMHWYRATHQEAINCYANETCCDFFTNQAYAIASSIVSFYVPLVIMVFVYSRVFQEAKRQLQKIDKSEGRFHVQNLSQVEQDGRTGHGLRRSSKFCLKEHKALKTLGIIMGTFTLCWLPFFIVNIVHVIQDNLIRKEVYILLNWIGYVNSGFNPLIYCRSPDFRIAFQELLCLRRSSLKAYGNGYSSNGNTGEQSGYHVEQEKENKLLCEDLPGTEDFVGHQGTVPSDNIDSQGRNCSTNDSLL

| SMILES | IC50 (Human β2 adrenoceptor) [nM] | IC50 (Human M3 receptor) [nM] |
| --- | --- | --- |
| CN(CCNC(=O)c1ccc(CNC[C@H](O)c2ccc(O)c3[nH]c(=O)ccc23)cc1)C(=O)COc1cccc([C@](O)(C(=O)OCC2CCN(Cc3ccccc3)CC2)c2ccccc2)c1 [Compound 60, (1-benzylpiperidin-4-yl)methyl (S)-2-hydroxy-2-(3-(2-((2-(4-((((R)-2-hydroxy-2-(8-hydroxy-2-oxo-1,2-dihydroquinolin-5-yl)ethyl)amino)methyl)benzamido)ethyl)(methyl)amino)-2-oxoethoxy)phenyl)-2-phenylacetate] | 0.3 to 3 | 0.3 to 3 |
| O=C(NCC1CCN(C(=O)COc2cccc([C@](O)(C(=O)OCC3CCN(Cc4ccccc4)CC3)c3ccccc3)c2)CC1)c1ccc(CNC[C@H](O)c2ccc(O)c3[nH]c(=O)ccc23)cc1 [Compound 61, (1-benzylpiperidin-4-yl)methyl (S)-2-hydroxy-2-(3-(2-(4-((4-((((R)-2-hydroxy-2-(8-hydroxy-2-oxo-1,2-dihydroquinolin-5-yl)ethyl)amino)methyl)benzamido)methyl)piperidin-1-yl)-2-oxoethoxy)phenyl)-2-phenylacetate] | < 0.3 | 0.3 to 3 |
| O=C(COc1cccc([C@](O)(C(=O)OCC2CCN(Cc3ccccc3)CC2)c2ccccc2)c1)N[C@H]1CC[C@H](NC(=O)c2ccc(CNC[C@H](O)c3ccc(O)c4[nH]c(=O)ccc34)cc2)CC1 [Compound 62, (1-benzylpiperidin-4-yl)methyl (S)-2-hydroxy-2-(3-(2-(((1R,4S)-4-(4-((((R)-2-hydroxy-2-(8-hydroxy-2-oxo-1,2-dihydroquinolin-5-yl)ethyl)amino)methyl)benzamido)cyclohexyl)amino)-2-oxoethoxy)phenyl)-2-phenylacetate] | < 0.3 | < 0.3 |
| O=C(COc1cccc([C@](O)(C(=O)OCC2CCN(Cc3ccccc3)CC2)c2ccccc2)c1)N[C@H]1C[C@H](NC(=O)c2ccc(CNC[C@H](O)c3ccc(O)c4[nH]c(=O)ccc34)cc2)C1 [Compound 63, (1-benzylpiperidin-4-yl)methyl (S)-2-hydroxy-2-(3-(2-(((1R,3S)-3-(4-((((R)-2-hydroxy-2-(8-hydroxy-2-oxo-1,2-dihydroquinolin-5-yl)ethyl)amino)methyl)benzamido)cyclobutyl)amino)-2-oxoethoxy)phenyl)-2-phenylacetate] | < 0.3 | < 0.3 |
| O=C(COc1cccc([C@](O)(C(=O)OCC2CCN(Cc3ccccc3)CC2)c2ccccc2)c1)N1CCC2(CC1)CCN(C(=O)c1ccc(CNC[C@H](O)c3ccc(O)c4[nH]c(=O)ccc34)cc1)CC2 [Compound 64, (1-benzylpiperidin-4-yl)methyl (S)-2-hydroxy-2-(3-(2-(9-(4-((((R)-2-hydroxy-2-(8-hydroxy-2-oxo-1,2-dihydroquinolin-5-yl)ethyl)amino)methyl)benzoyl)-3,9-diazaspiro[5.5]undecan-3-yl)-2-oxoethoxy)phenyl)-2-phenylacetate] | 0.3 to 3 | < 0.3 |
| O=C(COc1cccc([C@](O)(C(=O)OCC2CCN(Cc3ccccc3)CC2)c2ccccc2)c1)NC1CCN(C(=O)c2ccc(CNC[C@H](O)c3ccc(O)c4[nH]c(=O)ccc34)cc2)CC1 [Compound 65, (1-benzylpiperidin-4-yl)methyl (S)-2-hydroxy-2-(3-(2-((1-(4-((((R)-2-hydroxy-2-(8-hydroxy-2-oxo-1,2-dihydroquinolin-5-yl)ethyl)amino)methyl)benzoyl)piperidin-4-yl)amino)-2-oxoethoxy)phenyl)-2-phenylacetate] | 0.3 to 3 | < 0.3 |
| O=C(COc1cccc([C@](O)(C(=O)OCC2CCN(Cc3ccccc3)CC2)c2ccccc2)c1)NC1CN(C(=O)c2ccc(CNC[C@H](O)c3ccc(O)c4[nH]c(=O)ccc34)cc2)C1 [Compound 66, (1-benzylpiperidin-4-yl)methyl (S)-2-hydroxy-2-(3-(2-((1-(4-((((R)-2-hydroxy-2-(8-hydroxy-2-oxo-1,2-dihydroquinolin-5-yl)ethyl)amino)methyl)benzoyl)azetidin-3-yl)amino)-2-oxoethoxy)phenyl)-2-phenylacetate] | < 0.3 | 0.3 to 3 |
| O=C(NC1CN(C(=O)COc2cccc([C@](O)(C(=O)OCC3CCN(Cc4ccccc4)CC3)c3ccccc3)c2)C1)c1ccc(CNC[C@H](O)c2ccc(O)c3[nH]c(=O)ccc23)cc1 [Compound 67, (1-benzylpiperidin-4-yl)methyl (S)-2-hydroxy-2-(3-(2-(3-(4-((((R)-2-hydroxy-2-(8-hydroxy-2-oxo-1,2-dihydroquinolin-5-yl)ethyl)amino)methyl)benzamido)azetidin-1-yl)-2-oxoethoxy)phenyl)-2-phenylacetate] | < 0.3 | < 0.3 |
| O=C(COc1cccc([C@](O)(C(=O)OCC2CCN(Cc3ccccc3)CC2)c2ccccc2)c1)N[C@@H]1CCN(C(=O)c2ccc(CNC[C@H](O)c3ccc(O)c4[nH]c(=O)ccc34)cc2)C1 [Compound 68, (1-benzylpiperidin-4-yl)methyl (S)-2-hydroxy-2-(3-(2-(((R)-1-(4-((((R)-2-hydroxy-2-(8-hydroxy-2-oxo-1,2-dihydroquinolin-5-yl)ethyl)amino)methyl)benzoyl)pyrrolidin-3-yl)amino)-2-oxoethoxy)phenyl)-2-phenylacetate] | 0.3 to 3 | 0.3 to 3 |
| O=C(COc1cccc([C@](O)(C(=O)OCC2CCN(Cc3ccccc3)CC2)c2ccccc2)c1)N[C@H]1CCCN(C(=O)c2ccc(CNC[C@H](O)c3ccc(O)c4[nH]c(=O)ccc34)cc2)C1 [Compound 69, (1-benzylpiperidin-4-yl)methyl (S)-2-hydroxy-2-(3-(2-(((S)-1-(4-((((R)-2-hydroxy-2-(8-hydroxy-2-oxo-1,2-dihydroquinolin-5-yl)ethyl)amino)methyl)benzoyl)piperidin-3-yl)amino)-2-oxoethoxy)phenyl)-2-phenylacetate] | 0.3 to 3 | 0.3 to 3 |
| O=C(COc1cccc([C@](O)(C(=O)OCC2CCN(Cc3ccccc3)CC2)c2ccccc2)c1)N[C@H]1CCN(C(=O)c2ccc(CNC[C@H](O)c3ccc(O)c4[nH]c(=O)ccc34)cc2)C1 [Compound 70, (1-benzylpiperidin-4-yl)methyl (S)-2-hydroxy-2-(3-(2-(((S)-1-(4-((((R)-2-hydroxy-2-(8-hydroxy-2-oxo-1,2-dihydroquinolin-5-yl)ethyl)amino)methyl)benzoyl)pyrrolidin-3-yl)amino)-2-oxoethoxy)phenyl)-2-phenylacetate] | 0.3 to 3 | 0.3 to 3 |
| O=C(COc1cccc([C@](O)(C(=O)OCC2CCN(Cc3ccccc3)CC2)c2ccccc2)c1)N[C@@H]1CCCN(C(=O)c2ccc(CNC[C@H](O)c3ccc(O)c4[nH]c(=O)ccc34)cc2)C1 [Compound 71, (1-benzylpiperidin-4-yl)methyl (S)-2-hydroxy-2-(3-(2-(((R)-1-(4-((((R)-2-hydroxy-2-(8-hydroxy-2-oxo-1,2-dihydroquinolin-5-yl)ethyl)amino)methyl)benzoyl)piperidin-3-yl)amino)-2-oxoethoxy)phenyl)-2-phenylacetate] | > 3 | 0.3 to 3 |
| O=C(N[C@H]1CCCN(C(=O)COc2cccc([C@](O)(C(=O)OCC3CCN(Cc4ccccc4)CC3)c3ccccc3)c2)C1)c1ccc(CNC[C@H](O)c2ccc(O)c3[nH]c(=O)ccc23)cc1 [Compound 72, (1-benzylpiperidin-4-yl)methyl (S)-2-hydroxy-2-(3-(2-((S)-3-(4-((((R)-2-hydroxy-2-(8-hydroxy-2-oxo-1,2-dihydroquinolin-5-yl)ethyl)amino)methyl)benzamido)piperidin-1-yl)-2-oxoethoxy)phenyl)-2-phenylacetate] | > 3 | 0.3 to 3 |
| O=C(N[C@H]1CCN(C(=O)COc2cccc([C@](O)(C(=O)OCC3CCN(Cc4ccccc4)CC3)c3ccccc3)c2)C1)c1ccc(CNC[C@H](O)c2ccc(O)c3[nH]c(=O)ccc23)cc1 [Compound 73, (1-benzylpiperidin-4-yl)methyl (S)-2-hydroxy-2-(3-(2-((S)-3-(4-((((R)-2-hydroxy-2-(8-hydroxy-2-oxo-1,2-dihydroquinolin-5-yl)ethyl)amino)methyl)benzamido)pyrrolidin-1-yl)-2-oxoethoxy)phenyl)-2-phenylacetate] | < 0.3 | 0.3 to 3 |
| O=C(c1ccc(CNC[C@H](O)c2ccc(O)c3[nH]c(=O)ccc23)cc1)N1C[C@H]2CCN(C(=O)COc3cccc([C@](O)(C(=O)OCC4CCN(Cc5ccccc5)CC4)c4ccccc4)c3)[C@H]2C1 [Compound 74, (1-benzylpiperidin-4-yl)methyl (S)-2-hydroxy-2-(3-(2-((3aR,6aR)-5-(4-((((R)-2-hydroxy-2-(8-hydroxy-2-oxo-1,2-dihydroquinolin-5-yl)ethyl)amino)methyl)benzoyl)hexahydropyrrolo[3,4-b]pyrrol-1(2H)-yl)-2-oxoethoxy)phenyl)-2-phenylacetate] | 0.3 to 3 | 0.3 to 3 |
| O=C(N[C@@H]1CCCN(C(=O)COc2cccc([C@](O)(C(=O)OCC3CCN(Cc4ccccc4)CC3)c3ccccc3)c2)C1)c1ccc(CNC[C@H](O)c2ccc(O)c3[nH]c(=O)ccc23)cc1 [Compound 75, (1-benzylpiperidin-4-yl)methyl (S)-2-hydroxy-2-(3-(2-((R)-3-(4-((((R)-2-hydroxy-2-(8-hydroxy-2-oxo-1,2-dihydroquinolin-5-yl)ethyl)amino)methyl)benzamido)piperidin-1-yl)-2-oxoethoxy)phenyl)-2-phenylacetate] | > 3 | 0.3 to 3 |
| O=C(N[C@@H]1CCN(C(=O)COc2cccc([C@](O)(C(=O)OCC3CCN(Cc4ccccc4)CC3)c3ccccc3)c2)C1)c1ccc(CNC[C@H](O)c2ccc(O)c3[nH]c(=O)ccc23)cc1 [Compound 76, (1-benzylpiperidin-4-yl)methyl (S)-2-hydroxy-2-(3-(2-((R)-3-(4-((((R)-2-hydroxy-2-(8-hydroxy-2-oxo-1,2-dihydroquinolin-5-yl)ethyl)amino)methyl)benzamido)pyrrolidin-1-yl)-2-oxoethoxy)phenyl)-2-phenylacetate] | 0.3 to 3 | 0.3 to 3 |
